Results on 30 compounds are retold here after ChEMBL document CHEMBL5528066, “Discovery of Novel N-(Anthracen-9-ylmethyl) Benzamide Derivatives as ZNF207 Inhibitors Promising in Treating Glioma” (J Med Chem, 2024).

SMILES strings stand for the structures.

Common to all, as to assay type: functional, cell-based
One test has as its system Hs 683. Put plainly: Antiproliferative activity against human Hs 683 cells assessed as inhibition of cell growth measured after 72 hrs by CCK-8 assay. The conditions noted are these: Hs 683, 72 h.
The test system of a further test is U-251. Put plainly: Antiproliferative activity against human U-251MG cells assessed as inhibition of cell growth measured after 72 hrs by CCK-8 assay. Particulars: U-251, 72 h. For orientation: Tetrazolium dyes change colour on reduction, which living cells bring about.
A further test has as its system LN-229. Put plainly: Antiproliferative activity against human LN-229 cells assessed as inhibition of cell growth measured after 72 hrs by CCK-8 assay. Particulars: LN-229, 72 h.
The next test has as its system H4. Put plainly: Antiproliferative activity against human H4 cells assessed as inhibition of cell growth measured after 72 hrs by CCK-8 assay. Particulars: H4, 72 h.

As to `N#CC1(C(=O)NCc2cccc(Cl)c2Cl)CC2c3ccccc3C1c1ccccc12` (racemic), the IC50 with Hs 683, in the test with U-251, with LN-229 and with H4 was over 80 µM each time.
Regarding `COc1cc(NC(=O)C2(C#N)CC3c4ccccc4C2c2ccccc23)cc(OC)c1` (racemic), the half-inhibitory concentration (IC50) with Hs 683, with U-251, in the test with LN-229 and with H4 was over 80 µM throughout.
For the compound `Cc1ccccc1NC(=O)C1(C#N)CC2c3ccccc3C1c1ccccc12` (racemic), the IC50 in the test with Hs 683, in the test with U-251, with LN-229 and in the test on H4 was over 80 µM in each case.
`N#CC1(C(=O)NCCc2cccc(F)c2)CC2c3ccccc3C1c1ccccc12` (racemic): the IC50 (commonly the midpoint of a concentration-inhibition curve) amounted to 46.6 µM with Hs 683, 40.5 µM in the test on U-251, 33 µM with LN-229 and 50 µM in the test on H4.
The matching figures for `N#CC1(C(=O)Nc2ccc(F)cc2)CC2c3ccccc3C1c1ccccc12` (racemic): over 80 µM, over 80 µM, over 80 µM and over 80 µM.
The matching figures for `N#CC1(C(=O)NCC2CCN(Cc3ccccc3)CC2)CC2(Br)c3ccccc3C1c1ccccc12` (racemic): 14.9 µM, 15.7 µM, 5.94 µM and 3.32 µM.
The matching figures for `N#CC1(C(=O)NCC2CCN(Cc3ccc(F)cc3)CC2)CC2(Br)c3ccccc3C1c1ccccc12` (racemic): over 80 µM, over 80 µM, over 80 µM and over 80 µM.
For `N#CC1(C(=O)NCCc2cccc(Cl)c2)CC2c3ccccc3C1c1ccccc12` (racemic), the half-maximal inhibitory concentration (IC50) is over 80 µM in the test on Hs 683, 54.3 µM with U-251, 36.6 µM in the test on LN-229 and 18.8 µM with H4.
In the same order, the values of `N#CC1(C(=O)Nc2ccc(N)cc2)CC2c3ccccc3C1c1ccccc12` (racemic) are over 80 µM, over 80 µM, over 80 µM and 61.7 µM.
The matching figures for `N#CC1(C(=O)NCCc2ccc3c(c2)OCO3)CC2c3ccccc3C1c1ccccc12` (racemic): 44 µM, over 80 µM, 36.8 µM and over 80 µM.
As for `N#CC1(C(=O)NCCc2ccccc2F)CC2c3ccccc3C1c1ccccc12` (racemic), the concentration for half-maximal inhibition (IC50) in the test with Hs 683 was over 80 µM; in the test with U-251, 38.1 µM; in the test with LN-229, 49 µM; in the test with H4, 26 µM.
In the case of `N#CC1(C(=O)NCc2ccccc2)CC2c3ccccc3C1c1ccccc12` (racemic), the IC50 in the test on Hs 683, in the test on U-251, in the test on LN-229 and with H4 was over 80 µM in each case.
Take `O=C(NCCC1CCN(Cc2ccccc2)CC1)C1(Cl)CC2(Br)c3ccccc3C1c1ccccc12` (racemic): the half-maximal inhibitory concentration (IC50) worked out at 38.7 µM with Hs 683, 24.1 µM with U-251, 12.4 µM in the test with LN-229 and 19.1 µM in the test on H4.
`N#CC1(C(=O)NCCc2ccc(F)cc2)CC2(Br)c3ccccc3C1(Br)c1ccccc12` (racemic): the IC50 is over 80 µM with Hs 683, over 80 µM with U-251, over 80 µM with LN-229 and 54 µM in the test with H4.
In the case of `N#CC1(C(=O)NCCc2ccc([N+](=O)[O-])cc2)CC2c3ccccc3C1c1ccccc12` (racemic), the IC50 with Hs 683 was over 80 µM; in the test on U-251, 48.3 µM; in the test on LN-229, 23.8 µM; with H4, 36.9 µM.
For the compound `N#CC1(C(=O)NCCc2ccc(F)cc2)CC2(CCl)c3ccccc3C1c1ccccc12` (racemic), the IC50 in the test on Hs 683 is 52.8 µM; in the test with U-251, 34.9 µM; with LN-229, 60.2 µM; in the test with H4 it was 32.6 µM.
In the same order, the values of `COc1ccc(NC(=O)C2(C#N)CC3c4ccccc4C2c2ccccc23)cc1C` (racemic) are over 80 µM, over 80 µM, over 80 µM and over 80 µM.
In the same order, the values of `N#CC1(C(=O)NCCC2CCN(Cc3ccccc3)CC2)CC2c3ccccc3C1c1ccccc12` (racemic) are 19.1 µM, 35.9 µM, 11.6 µM and 26.6 µM.
Consider `N#CC1(C(=O)NCCc2ccc(F)cc2)CC2(CO)c3ccccc3C1c1ccccc12` (racemic), for which the IC50 with Hs 683 was 21.8 µM; in the test with U-251, 39.8 µM; with LN-229 it was 15 µM; in the test on H4 it was 30.7 µM.
For the compound `N#CC1(C(=O)NCCc2ccc(F)cc2)CC2(Br)c3ccccc3C1c1ccccc12` (racemic), the half-inhibitory concentration (IC50) with Hs 683 was found to be 19.8 µM; in the test with U-251, 21.4 µM; in the test on LN-229 it was 14.6 µM; in the test on H4, 15.3 µM.
Turning to `Cc1ccc(CCNC(=O)C2(C#N)CC3c4ccccc4C2c2ccccc23)cc1` (racemic), the IC50 in the test with Hs 683 is 39.9 µM; in the test with U-251 it was over 80 µM; with LN-229, 60.8 µM; in the test with H4 it was over 80 µM.
On to `N#CC1(C(=O)NCCC2CCN(Cc3ccc(F)cc3)CC2)CC2(Br)c3ccccc3C1c1ccccc12` (racemic), for which the IC50 in the test with Hs 683 amounted to 21.9 µM; with U-251, 18.1 µM; with LN-229 it was 18.7 µM; with H4, 18 µM.
In the same order, the values of `N#CC1(C(=O)NCCc2ccc(F)cc2)CC2c3ccccc3C1c1ccccc12` (racemic) are 43.6 µM, 52.3 µM, 32.5 µM and 35.2 µM.
As to `COc1cc(NC(=O)C2(C#N)CC3c4ccccc4C2c2ccccc23)cc(OC)c1OC` (racemic), the IC50 in the test with Hs 683, in the test on U-251, in the test on LN-229 and in the test with H4 was over 80 µM in each case.
In the case of `O=C(NCCc1ccc(F)cc1)C1(Cl)CC2(Br)c3ccccc3C1c1ccccc12` (racemic), the IC50 in the test with Hs 683, in the test on U-251, in the test on LN-229 and with H4 was over 80 µM each time.
As to `N#CC1(C(=O)NC2CCN(Cc3ccccc3)CC2)CC2(Br)c3ccccc3C1c1ccccc12` (racemic), the IC50 was 11.3 µM in the test with Hs 683, 25.1 µM in the test on U-251, 7.36 µM with LN-229 and 9.84 µM with H4.
`CC12CC(C#N)(C(=O)NCCc3ccc(F)cc3)C(c3ccccc31)c1ccccc12` (racemic): the IC50 turned out to be 24.6 µM with Hs 683, 18.7 µM with U-251, 28.9 µM with LN-229 and 22.3 µM in the test with H4.
The matching figures for `N#CC1(C(=O)Nc2ccc3c(c2)OCO3)CC2c3ccccc3C1c1ccccc12` (racemic): over 80 µM, 72.6 µM, 45.5 µM and 20 µM.
The matching figures for `COc1ccc(NC(=O)C2(C#N)CC3c4ccccc4C2c2ccccc23)cc1` (racemic): over 80 µM, over 80 µM, over 80 µM and over 80 µM.
In the same order, the values of `CC(=O)C12CC(C#N)(C(=O)NCCc3ccc(F)cc3)C(c3ccccc31)c1ccccc12` (racemic) are 20.7 µM, 18.8 µM, 29.5 µM and 24.7 µM.
